Laboratory results published in patent publication US11944688B2, “Biologically active compounds” (SUTURA THERAPEUTICS LTD, priority 2015, dated 2024).
Positions of bridges follow the written chain, without caps; N, C: chain ends. Non-standard residues stand in square brackets, D forms with d. No end group written: not given here. {FITC} = fluorescein isothiocyanate label; S5 = C=CCCC[C@](C)(N)C(=O)O; {NH2} = amine group

What was measured:
U2OS cells = test: Delivery of fluorescently labelled PMO into U2OS cells, fluorescence microscopy; assay type: cell-based, human; conditions: 0.5-10 μM, 4 hours, without transfection reagent
Description: The biologically active compound was a PMO with a sequence:
(an antisense reagent targeted to exon 23 of the mouse dystrophin gene, that causes the exclusion of exon 23 during mRNA splicing maturation); the bi-functional linker was a PEGylated SMCC; and the StaP was RKF-S5-RLF-S5 (SEQ ID NO: 57). This configuration of DCCPM is depicted as PMO-CP8M in the subsequent figs; unconjugated PMO acts as a control. All compounds were added to U2OS cells maintained in culture, without transfection reagent for 4 hours;
U2OS cells (Human osteosarcoma) were cultured in high glucose DMEM supplemented with 10% foetal calf serum (Sigma, UK) at 37° C. under an 8% CO2/92% air atmosphere.
(§1) U2OS cells were incubated with PMO or PMO-CP8M at increasing concentration (0.5 μM, 1.0 μM, 5.0 μM and 10 μM) with […] transfection reagent; H2K mdx mouse myoblasts were incubated with PMO or PMO-CP8M at 5.0 μM: HEK293T cells were incubated with CP8M (1.0 μM, 10 μM and 100 μM) and PMO, PMO-CP8M-NC, PMO-C8M at 1.0 μM. Levels of fluorescence was quantified at 494 nm to determine relative entry of respective compounds by microscopic or flow cytometry methodologies.

dystrophin [1] = test: Dystrophin immunostaining of cerebellum after systemic administration in mdx mice; assay type: in vivo; conditions: single 1 μmol/kg intravenous, without fluorescent label, 7 days, n=1 per group
Description: All dose are given in respect of the molarity of PMO [* denotes non fluorescent labelled PMO]. Cerebella were recovered 7 days post administration; and
(§2) mdx mice, with access to chow and water ad libitum, were used in all experiments. All experiments were carried out in the Animal unit, School of Biological Science, University of Reading, Reading, UK according to procedures authorized by the UK Home Office. Mice were killed by CO2 inhalation or cervical dislocation at desired time points, and muscles and other tissues were snap-frozen in liquid nitrogen-cooled isopentane and stored at −80° C.
(§3) Intramuscular administrations: Tibialis anterior muscles of mdx mice were injected with either 2.2 nmol PMO or 2.2 nmol PMO-CP8M under isoflurane anaesthesia. […]
(§4) For skeletal muscle, heart and brain, […] cryosections were cut and dystrophin protein was detected using rabbit polyclonal antibody to dystrophin (ab15277; Abcam, Cambridge, UK). […] For liver, […] cryosections were dried and embedded in fluorescence-compatible mounting medium (Dako), and general fluorescence was assessed microscopically at 494 nm.

H2K mdx mouse myoblasts = test: Delivery of fluorescently labelled PMO into H2K mdx myoblasts, fluorescence microscopy; assay type: cell-based; conditions: 5 μM, without transfection reagent
Description: (§5) H2K mdx mouse myoblasts were cultured at 33° C. under a 8% CO2/92% air atmosphere in high-glucose DMEM supplemented with 20% foetal calf serum, 0.5% chicken embryo extract (PAA laboratories Ltd, Yeovil, UK), and 20 units/ml γ-interferon (Roche applied science, Penzberg, Germany). Cells were then treated with trypsin and plated at 8×10^4/cm^2 in 24-well plates coated with 0.1 mg/ml ECM gel (Sigma). H2K mdx cells were transfected 24 h after seeding with treatment in a final volume of 0.2 ml of normal growth media. Following 4 hours of transfection, the PMO or PMO-SAP was removed and replaced with DMEM supplemented with 5% horse serum. Fluorescence and RNA extraction was performed 48 hours post transfection.
as §1

[2] = system: exon 23 of the mouse dystrophin gene; test: Exon 23 exclusion in H2K mdx cells, nested RT-PCR; assay type: cell-based; conditions: 5 μM, RT-PCR 901 bp full length / 688 bp exon 23 excluded
Description: 24 hours after incubation with PMO-CP8M or PMO, H2K mdx cells were recovered and RNA isolated. The RNA was reversed transcribed and an amplification between exon 20 and 26 of the mouse dystrophin gene, followed by a nested amplification between exon 20 and 26 was performed to yield a full length product of 901 bp fragment if exon 23 is present or 688 bp fragment if exon 23 is excluded;
as §5
Total RNA was isolated from H2K mdx mouse myoblasts cells (RNeasy, Qiagen, UK). […]

HEK293T cells = test: Uptake into HEK293T cells by flow cytometry; assay type: cell-based, human; conditions: 4 hours
Description: FIG. 11 is the analysis of PMO uptake into HEK293T cells by flow cytometry. Cells were incubated without PMO or with 1 μM PMO, 1 μM PMO-C8M or 1 μM PMO-CP8M-NC (all fluorescein-labelled) at 37° C. for 4 hours. Fluorescence was measured after washing the cells with PBS.
HEK293T cells (Human embryonic kidney) were cultured in high glucose DMEM supplemented with 10% foetal calf serum (Sigma, UK) at 37° C. under an 8% CO2/92% air atmosphere.
as §1
Uptake of fluorescently-labelled PMO was determined by flow cytometry using an Accuri C6 flow cytometer. PMO-transfected cells were released with trypsin, washed in PBS and kept on ice before analysis. Cell fluorescence in single live cells was determined using FlowJo software after appropriate gating. Untreated cells were used to establish gating settings for the determination of the % fluorescein-positive cells.

dystrophin [3] = test: Dystrophin immunostaining of heart muscle after intraperitoneal administration in mdx mice; assay type: in vivo
Description: FIG. 18a is of mdx mice following a single intraperitoneal injection of 1 μmol/kg PMO-CP8M or 1 μmol/kg PMO. Muscles were recovered 7 days post administration;
FIG. 18b is following multiple intraperitoneal injections—total 7.6 μmol/kg PMO-CP8M or 7.6 μmol/kg PMO. Muscles were recovered 14 days post administration;
FIG. 18c is following multiple intraperitoneal injections—total 10.9 μmol/kg PMO-CP8M or 10.9 μmol/kg PMO;
FIG. 18d is a graphical representation of the number of cardiac muscle fibre being positive for an immuno-cytochemical staining for dystrophin following a multiple intraperitoneal injections—total 7.6 μmol/kg PMO-CP8M or 7.6 μmol/kg PMO; and
FIG. 18e is a graphical representation of the number of cardiac muscle fibre being positive for an immuno-cytochemical staining for dystrophin following multiple intraperitoneal injections—total 10.9 μmol/kg PMO-CP8M or 10.9 μmol/kg PMO. All dose are given in respect of the molarity of PMO [* denotes non fluorescent labelled PMO]. Hearts were recovered 14 days post administration;
Hearts were recovered 14 days post administration;
as §2, §3, §4

dystrophin [4] = test: Dystrophin immunostaining of Tibialis anterior after intramuscular injection in mdx mice; assay type: in vivo; conditions: single intramuscular 2.2 nmol, 7 days post-administration, n=4
Description: Muscles were recovered 7 day post administration;
All dose are given in respect of the molarity of PMO;
as §2, §3, §4

PMO: PMO 5′GGCCAAACCTCGGCTTACCTGAAAT3′ targeted to exon 23 of mouse dystrophin gene; 5′ amine, 3′ FITC label; unconjugated control (all phosphorodiamidate morpholino (PMO), 5' {NH2}, 3' {FITC})
fluorescence signal (cell entry) (U2OS cells): only a background fluorescence signal | dystrophin expression in Purkinje cells of cerebellum (dystrophin [1]): No dystrophin expression was observed | muscle cell entry (H2K mdx mouse myoblasts): refractory to muscle cell entry | exclusion of exon 23 from the dystrophin transcript [2]: lack of exon exclusion | cell entry of fluorescein-labelled PMO (HEK293T cells; HEK293T, 1 μM, 37° C.): refractory to cell entry | dystrophin-positive heart muscle fibres, 7.6 μmol/kg (dystrophin [3]; intraperitoneal total 7.6 μmol/kg over 4 days, without fluorescent label, 2 weeks post-administration, n=4, mean±SEM): 57±17 fibres | dystrophin-positive heart muscle fibres, 10.9 μmol/kg (dystrophin [3]; intraperitoneal total 10.9 μmol/kg over 2 days, n=4, mean±SEM): 33±8 fibres | dystrophin-positive heart muscle fibres, single low dose (dystrophin [3]; single intraperitoneal 1 μmol/kg, 7 days, n=1 per group): not | percentage of dystrophin re-expression (dystrophin [4]): 762.25

CP8M: CPP sequence RKF-S5-RLF-S5 (SEQ ID NO: 57) with PEGylated SMCC as BFL (RKF[S5]RLF[S5]-NH2; staple 4-8; also: PEGylated SMCC as BFL, attachment not given here)
cellular entry of FITC-labelled CP8M charge variants (HEK293T cells; HEK293T, 1.0, 10 and 100 μM, without transfection reagent): dose dependent increase
